Measurements taken from ChEMBL document CHEMBL1151958, “Improving metabolic stability by glycosylation: bifunctional peptide derivatives that are opioid receptor agonists and neurokinin 1 receptor antagonists” (J Med Chem, 2009).

Columns and labels:
[1] = Metabolic stability in rat plasma assessed as half life at 37 degC; type: ADME, cell-free
[2] = biological target: Delta-type opioid receptor (Homo sapiens, UniProt P41143); experiment: Displacement of [3H]DPDPE from human delta opioid receptor expressed in mouse HN9.10 cell membrane; type: cell membranes
[3] = biological target: Substance-P receptor (Homo sapiens, UniProt P25103); experiment: Displacement of [3H]substance P from human NK1 receptor expressed in CHO cell membrane; type: cell membranes
[4] = biological target: Mu-type opioid receptor (Rattus norvegicus, UniProt P33535); experiment: Displacement of [3H]DAMGO from rat mu opioid receptor expressed in mouse HN9.10 cell membrane; type: cell membranes
[5] = biological target: Substance-P receptor (Rattus norvegicus, UniProt P14600); experiment: Displacement of [3H]substance P from rat NK1 receptor expressed in CHO cell membrane; type: cell membranes
Chain of Substance-P receptor (Rattus norvegicus, UniProt P14600) (P14600 whole entry): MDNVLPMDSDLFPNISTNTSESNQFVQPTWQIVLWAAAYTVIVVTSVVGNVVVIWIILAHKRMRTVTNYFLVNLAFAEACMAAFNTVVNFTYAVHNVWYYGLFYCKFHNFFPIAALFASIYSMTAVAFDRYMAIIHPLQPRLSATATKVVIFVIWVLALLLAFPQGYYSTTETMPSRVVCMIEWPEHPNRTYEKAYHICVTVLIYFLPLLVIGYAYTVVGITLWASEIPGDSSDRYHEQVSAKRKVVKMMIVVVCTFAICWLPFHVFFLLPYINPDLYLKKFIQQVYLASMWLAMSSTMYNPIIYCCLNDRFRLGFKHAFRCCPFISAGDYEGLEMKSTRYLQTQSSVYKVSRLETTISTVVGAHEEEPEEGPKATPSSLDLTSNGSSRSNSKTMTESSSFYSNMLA

Chain of Substance-P receptor (Homo sapiens, UniProt P25103) (P25103 whole entry): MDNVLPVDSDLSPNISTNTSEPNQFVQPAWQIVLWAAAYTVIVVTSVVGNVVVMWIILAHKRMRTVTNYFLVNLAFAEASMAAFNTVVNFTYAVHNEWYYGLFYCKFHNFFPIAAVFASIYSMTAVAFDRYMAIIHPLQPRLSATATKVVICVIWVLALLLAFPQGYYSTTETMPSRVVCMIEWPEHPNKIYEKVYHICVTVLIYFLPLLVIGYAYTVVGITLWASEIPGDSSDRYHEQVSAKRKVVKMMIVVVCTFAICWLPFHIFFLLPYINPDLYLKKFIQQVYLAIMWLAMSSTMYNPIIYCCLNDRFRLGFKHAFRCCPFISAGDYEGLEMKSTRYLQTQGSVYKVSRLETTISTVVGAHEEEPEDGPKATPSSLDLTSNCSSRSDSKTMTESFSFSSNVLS
Chain of Mu-type opioid receptor (P33535 whole entry): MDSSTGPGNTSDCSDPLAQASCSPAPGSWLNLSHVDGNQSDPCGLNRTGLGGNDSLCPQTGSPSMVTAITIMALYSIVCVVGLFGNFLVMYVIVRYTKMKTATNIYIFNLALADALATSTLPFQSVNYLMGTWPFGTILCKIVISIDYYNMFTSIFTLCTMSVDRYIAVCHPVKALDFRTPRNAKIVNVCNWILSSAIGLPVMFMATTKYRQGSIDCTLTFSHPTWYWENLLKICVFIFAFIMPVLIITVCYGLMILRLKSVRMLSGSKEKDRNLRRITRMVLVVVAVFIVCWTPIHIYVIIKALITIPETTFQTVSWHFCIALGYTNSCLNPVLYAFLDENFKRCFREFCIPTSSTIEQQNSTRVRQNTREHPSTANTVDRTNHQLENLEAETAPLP
Chain of Delta-type opioid receptor (P41143 whole entry): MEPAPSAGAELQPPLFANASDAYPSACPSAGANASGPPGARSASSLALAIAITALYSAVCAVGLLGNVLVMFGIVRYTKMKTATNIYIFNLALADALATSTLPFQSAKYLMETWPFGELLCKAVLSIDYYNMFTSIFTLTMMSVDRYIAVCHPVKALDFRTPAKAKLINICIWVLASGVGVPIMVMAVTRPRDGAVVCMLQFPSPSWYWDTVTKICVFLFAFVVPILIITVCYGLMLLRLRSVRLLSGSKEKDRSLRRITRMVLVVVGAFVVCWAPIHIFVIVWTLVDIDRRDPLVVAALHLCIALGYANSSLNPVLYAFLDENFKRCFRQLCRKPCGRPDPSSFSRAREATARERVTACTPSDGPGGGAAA

For CCCC[C@H](NC(=O)[C@H](Cc1ccccc1)NC(=O)CNC(=O)[C@@H](C)NC(=O)[C@@H](N)Cc1ccc(O)cc1)C(=O)N1CCC[C@H]1C(=O)N[C@@H](CC(C)C)C(=O)N[C@@H](Cc1c[nH]c2ccccc12)C(=O)NCc1cc(C(F)(F)F)cc(C(F)(F)F)c1, the half-life [1] was > 6 h, the IC50 [2] was 2.14 nM and the IC50 [3] was 0.00269 nM.
With CCCC[C@H](NC(=O)[C@H](Cc1ccccc1)NC(=O)CNC(=O)[C@@H](C)NC(=O)[C@@H](N)Cc1ccc(O)cc1)C(=O)N1CCC[C@H]1C(=O)N[C@@H](CO[C@@H]1O[C@H](CO)[C@@H](O)[C@H](O)[C@H]1O)C(=O)N[C@@H](Cc1c[nH]c2ccccc12)C(=O)NCc1cc(C(F)(F)F)cc(C(F)(F)F)c1 the half-life [1] was > 6 h, the IC50 [2] was 7.94 nM and the IC50 [4] was 17 nM. It also gave an IC50 [5] of 50.1 nM.
With CC(C)C[C@H](NC(=O)[C@@H]1CCCN1C(=O)[C@H](CO[C@@H]1O[C@H](CO)[C@@H](O)[C@H](O)[C@H]1O)NC(=O)[C@H](Cc1ccccc1)NC(=O)CNC(=O)[C@@H](C)NC(=O)[C@@H](N)Cc1ccc(O)cc1)C(=O)N[C@@H](Cc1c[nH]c2ccccc12)C(=O)NCc1cc(C(F)(F)F)cc(C(F)(F)F)c1 the IC50 [2] was 123 nM, the IC50 [4] was 759 nM and the IC50 [3] was 0.000617 nM. The IC50 [5] was 4.47 nM.
CCCC[C@H](NC(=O)[C@H](Cc1ccccc1)NC(=O)CNC(=O)[C@@H](C)NC(=O)[C@@H](N)Cc1ccc(O)cc1)C(=O)N[C@@H](CO[C@@H]1O[C@H](CO)[C@@H](O)[C@H](O)[C@H]1O)C(=O)N[C@@H](CC(C)C)C(=O)N[C@@H](Cc1c[nH]c2ccccc12)C(=O)NCc1cc(C(F)(F)F)cc(C(F)(F)F)c1 showed an IC50 [4] of 7080 nM and an IC50 [3] of 4.17 nM.
